Legend:
HA [1] = assay: Adhesion of 35S-labeled B16-F10 melanoma cells to HA-coated plates; format: cell-based, mouse
Procedure: Three different Pep-1 derivatives were compared for their biological activities at the same concentration in terms of the molarity (150 μM) of the 16-mer Pep-1 peptide sequence. […] Data shown are the means+/−S.D. of % binding from quadruplicate samples. Asterisks indicate statistically significant differences (**p<0.01 by two-tailed Student's t-test).
FIGS. 9A-G. DC-associated HA and DC-dependent T cell proliferation. (A) DO11.10 T cells were cultured with y-irradiated splenic DC and/or OVA323-339 (2 μg/ml) in the presence of intact bPG (250 μg/ml), heat-denatured bPG, or PBS alone. Data shown are the means+/−s.d. (n=3) of ^3H-thymidine uptake. (B) DO11.10 T cells were cultured with the indicated numbers of splenic DC and OVA323-339 in the presence of Pep-1 (300 μM) (open circles), RP (closed circles), or PBS alone (squares). (C) Pep-1 (open circles) or PEG-conjugated Pep-1 (open triangles) were compared at the indicated concentrations (in terms of the molarity of the 12-mer Pep-1 sequence) for their abilities to inhibit the adhesion of ^35S-labeled B16 melanoma cells onto the HA-coated plates (Mummert et al. J. Exp. Med. 192:769-779, 2000). […] Statistically significant differences assessed by a two-tailed Student's t-test for comparing two groups or by analysis of variance (ANOVA) followed by LSD for multiple comparisons are indicated by asterisks (*P<0.05, **P<0.01).

B16-F10 melanoma cells = assay: Experimentally induced lung metastasis of i.v. infused B16-F10 melanoma cells; format: in vivo, C57BL/6 mice; conditions: simultaneous i.v. injection with B16-F10 cells
Procedure: FIGS. 4A-C. Impact of Pep-1 on lung metastasis of melanoma. (FIG. 4A) B16-F10 melanoma cells were suspended (4×10^5 cells/ml) in PBS containing Pep-1 monomer (2 or 3 mg/ml) (circles) or 2% DMSO alone (triangles). C57BL/6 mice received i.v. injection of these cell suspensions (500 μl/animal) and were examined for survival. Data shown are the cumulative survival curves from four independent experiments (n=37 for Pep-1 and n=20 for PBS control). […] (FIG. 4B) B16-F10 melanoma cells (1×10^5 cells/animal) were s.c. injected into the back of C57BL/6 mice. Pep-1 or RP (40 μg/injection) was injected locally into the tumor inoculation sites 0. 3. and 6 days after tumor injection. Data shown are the means+/−s.e.m. (n=10) of tumor sizes and tumor weights measured 10 days after tumor inoculation. (FIG. 4C) B16-F10 melanoma cells (2×10^5 cells/well) were cultured in the presence of the indicated concentrations of Pep-1 (closed circles) or PR (open circles). Data shown are the means+/−s.e.m.(n=3) of ^3H-thymidine uptake at 24 hr.
In the model, melanoma cells and Pep-1 (or random peptide control or PBS alone) were injected together intravenously into syngeneic C57BL/6 mice and lung metastasis was examined macroscopically and by following-up the survival of mice. […] The inventors will also examine the prophylactic and therapeutic potentials of multimeric Pep-1 formulations and other chemically modified Pep-1 derivatives using this animal model of melanoma metastasis.

HA [2] = conditions: co-pending application 60/126,475; cited from earlier work
[3] = systemic, local, or topical administration; co-pending application; cited from earlier work
[4] = tested on: XS52 DC and HDK-1 T cells; assay: Cytokine secretion in XS52 DC / HDK-1 T cell / KLH co-culture (ELISA); format: cell-based; conditions: 500 μg/ml; dose-dependent
Procedure: FIGS. 7A-C. Impact of tetrameric LIP on cytokine production during antigen presentation. (FIG. 7A) XS52 DC (0.2×10^6 cells/well) were cultured in the presence or absence of the KLH-reactive CD4^+ Thl clone HDK-1 (0.2×10^6 cells/well) and/or KLH (100 μg/ml). Culture supernatants collected at 24 hrs were examined for the indicated cytokines by ELISA. Data shown are the means+/−s.e.m. from triplicate samples. (FIG. 7B) XS52 DC and HDK-1 T cells were co-cultured with KLH in the presence of the indicated concentrations of Pep-1. Culture supernatants collected at 24 hrs were examined for the indicated cytokines by ELISA. (FIG. 7C) CD4^+ T cells isolated from DO11.10 transgenic mice (5×10^4 cells/well) were co-cultured with the indicated numbers of splenic DC isolated from BALB/c mice and the OVA peptide (2 μg/ml) in the presence of 500 μg/ml of Pep-1 (open circles), RP (triangles), or DMSO alone (closed circles). Co-cultures of CD4^+ T cells and DC in the absence of OVA peptide served as a control (square). All the cultures were examined for ^3H-thymidine uptake on Day 3. Data shown are the means+/−s.d. from triplicate samples.
During antigen-specific interaction DC delivers activation signals to T cells, leading to differentiation and clonal expansion of antigen-reactive T cells. At the same time, T cells deliver signals back to DC, leading to “terminal maturation” of DC^80. To test the potential impact of Pep-1 on this bi-directional DC-T cell interaction, the present inventors employed a fully characterized in vitro experimental system in which XS52 DC are cultured with a KLH-reactive CD4^+ Th1 clone HDK-1 in the presence of antigen (KLH)^81-85.

GAHWQFNALTVR [Pep-1]
blocking of B16-F10 adhesion to HA-coated plates (HA [1]): blocked efficiently | inhibition of HA-mediated cell adhesion (HA [1]; 150 μM in terms of molarity of the Pep-1 peptide sequence): only modest inhibition | survival of recipient animals (B16-F10 melanoma cells): prolonged the survival of recipient animals significantly | survival of recipient animals (B16-F10 melanoma cells; listed as Pep-1 monomer): Statistically significant difference (p<0.01 by the log-rank test) | extent of lung metastasis (B16-F10 melanoma cells; vs RP control): reduced the extent of lung metastasis significantly | inhibition of leukocyte adhesion to HA substrates (HA [2]): inhibited leukocyte adhesion to HA substrates almost completely | inhibition of contact hypersensitivity responses [3]: inhibited the expression of contact hypersensitivity responses | inhibition of IL-6 secretion [4]: almost complete inhibition | inhibition of TNFα secretion [4]: almost complete inhibition | inhibition of interferon-γ secretion [4]: almost complete inhibition
